Data: patent publication US12018016B2, “Aryl sulfonyl (hydroxy) piperidines as CCR6 inhibitors” (CHEMOCENTRYX, INC., priority 2021, dated 2024)

Biological target: T1, human CCR6 (Homo sapiens, UniProt P51684)
T1 construct: expressed in transfected cells; host or cells: Ba/F3 cells (mouse pro-B line)
T1 sequence (P51684 1-374): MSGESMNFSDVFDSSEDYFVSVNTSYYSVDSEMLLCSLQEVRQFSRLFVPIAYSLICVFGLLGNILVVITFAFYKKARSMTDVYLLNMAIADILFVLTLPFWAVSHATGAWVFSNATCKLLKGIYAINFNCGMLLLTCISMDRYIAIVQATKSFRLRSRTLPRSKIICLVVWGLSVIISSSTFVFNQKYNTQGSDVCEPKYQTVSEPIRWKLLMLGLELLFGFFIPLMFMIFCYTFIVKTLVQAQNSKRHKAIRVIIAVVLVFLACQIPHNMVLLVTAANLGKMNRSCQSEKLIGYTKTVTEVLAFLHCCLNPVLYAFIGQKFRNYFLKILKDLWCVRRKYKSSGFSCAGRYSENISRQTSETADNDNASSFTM
Test: Migration assay (chemotaxis, ChemoTX)
Type: cell-based
Conditions: hCCR6-transfected Ba/F3 cells in human serum, migration to recombinant human CCL20 10 nM, 37° C. 45 minutes; read-out: Potency (IC50 value in the migration assay)
Method in brief: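 Ba/F3 cells transfected with human CCR6 and butyrate-primed for 24 h were suspended at 4 million/ml in human serum with compound, serially diluted from a 1 μM final top concentration. Cells migrated through a 5-μm polycarbonate membrane toward 10 nM human CCL20 for 45 min at 37 °C. Migrated cells were quantified by CyQUANT fluorescence.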

SMILES | IC50
O=C1NCc2ncc(-c3ccc(S(=O)(=O)N4CC[C@@H](Nc5ccc(C(F)(F)F)cn5)[C@@H](O)C4)cc3)cc21 [Example 48, 3-(4-(((3S,4R)-3-hydroxy-4-((5-(trifluoromethyl)pyridin-2-yl)amino)piperidin-1-yl)sulfonyl)phenyl)-6,7-dihydro-5H-pyrrolo[3,4-b]pyridin-5-one] | < 1 nM
Cn1nc(N)c2cc(-c3ccc(S(=O)(=O)N4CC[C@@H](Nc5ccc(C(F)(F)F)cn5)[C@@H](O)C4)cc3)ccc21 [Example 49, (3S,4R)-1-((4-(3-amino-1-methyl-1H-indazol-5-yl)phenyl)sulfonyl)-4-((5-(trifluoromethyl)pyridin-2-yl)amino)piperidin-3-ol] | < 1 nM
CNC(=O)c1cc(-c2ccc(S(=O)(=O)N3CC[C@@H](Nc4ccc(C(F)(F)F)cn4)[C@@H](O)C3)cc2)ccn1 [Example 50, 4-(4-(((3S,4R)-3-hydroxy-4-((5-(trifluoromethyl)pyridin-2-yl)amino)piperidin-1-yl)sulfonyl)phenyl)-N-methylpicolinamide] | < 1 nM
NC(=O)c1cc(-c2ccc(S(=O)(=O)N3CC[C@@H](Nc4ccc(C(F)(F)F)cn4)[C@@H](O)C3)cc2)cnc1O [Example 51, 2-Hydroxy-5-(4-(((3S,4R)-3-hydroxy-4-((5-(trifluoromethyl)pyridin-2-yl)amino)piperidin-1-yl)sulfonyl)phenyl)nicotinamide] | < 1 nM
O=S(=O)(c1ccc(-c2ccnc(-c3ncc[nH]3)c2)cc1)N1CC[C@@H](Nc2ccc(C(F)(F)F)cn2)[C@@H](O)C1 [Example 52, (3S,4R)-1-((4-(2-(1H-imidazol-2-yl)pyridin-4-yl)phenyl)sulfonyl)-4-((5-(trifluoromethyl)pyridin-2-yl)amino)piperidin-3-ol] | < 1 nM
NC(=O)c1cc(-c2ccc(S(=O)(=O)N3CC[C@@H](Nc4ccc(C(F)(F)F)cn4)[C@@H](O)C3)cc2)cnc1N [Example 53, 2-Amino-5-(4-(((3S,4R)-3-hydroxy-4-((5-(trifluoromethyl)pyridin-2-yl)amino)piperidin-1-yl)sulfonyl)phenyl)nicotinamide] | < 1 nM
O=c1[nH]c2cc(-c3ccc(S(=O)(=O)N4CC[C@@H](Nc5ccc(C(F)(F)F)cn5)[C@@H](O)C4)cc3)cnc2[nH]1 [Example 54, 6-(4-(((3S,4R)-3-hydroxy-4-((5-(trifluoromethyl)pyridin-2-yl)amino)piperidin-1-yl)sulfonyl)phenyl)-1,3-dihydro-2H-imidazo[4,5-b]pyridin-2-one] | < 1 nM
Nc1n[nH]c2cc(-c3ccc(S(=O)(=O)N4CC[C@@H](Nc5ccc(C(F)(F)F)cn5)[C@@H](O)C4)cc3)ccc12 [Example 55, (3S,4R)-1-((4-(3-amino-1H-indazol-6-yl)phenyl)sulfonyl)-4-((5-(trifluoromethyl)pyridin-2-yl)amino)piperidin-3-ol] | < 1 nM
Cc1c(-c2ccc(S(=O)(=O)N3CC[C@@H](Nc4ccc(C(F)(F)F)cn4)[C@@H](O)C3)cc2)cnc2[nH]cc(C#N)c12 [Example 56, 5-(4-(((3S,4R)-3-hydroxy-4-((5-(trifluoromethyl)pyridin-2-yl)amino)piperidin-1-yl)sulfonyl)phenyl)-4-methyl-1H-pyrrolo[2,3-b]pyridine-3-carbonitrile] | < 1 nM
N#Cc1cc(-c2ccc(S(=O)(=O)N3CC[C@@H](Nc4ccc(C(F)(F)F)cn4)[C@@H](O)C3)cc2)ccn1 [Example 57, 4-(4-(((3S,4R)-3-hydroxy-4-((5-(trifluoromethyl)pyridin-2-yl)amino)piperidin-1-yl)sulfonyl)phenyl)picolinonitrile] | < 1 nM
COc1c(-c2ccc(S(=O)(=O)N3CC[C@@H](Nc4ccc(C(F)(F)F)cn4)[C@@H](O)C3)cc2)cnc2[nH]ccc12 [Example 58, (3S,4R)-1-((4-(4-methoxy-1H-pyrrolo[2,3-b]pyridin-5-yl)phenyl)sulfonyl)-4-((5-(trifluoromethyl)pyridin-2-yl)amino)piperidin-3-ol] | < 1 nM
Cc1c(-c2ccc(S(=O)(=O)N3CC[C@@H](Nc4ccc(C(F)(F)F)cn4)[C@@H](O)C3)cc2)cnc2[nH]ccc12 [Example 60, (3S,4R)-1-((4-(4-methyl-1H-pyrrolo[2,3-b]pyridin-5-yl)phenyl)sulfonyl)-4-((5-(trifluoromethyl)pyridin-2-yl)amino)piperidin-3-ol] | < 1 nM
N#Cc1c[nH]c2ncc(-c3ccc(S(=O)(=O)N4CC[C@@H](Nc5ccc(C(F)(F)F)cn5)[C@@H](O)C4)cc3)cc12 [Example 61, 5-(4-(((3S,4R)-3-hydroxy-4-((5-(trifluoromethyl)pyridin-2-yl)amino)piperidin-1-yl)sulfonyl)phenyl)-1H-pyrrolo[2,3-b]pyridine-3-carbonitrile] | < 1 nM
Cc1c(-c2ccc(S(=O)(=O)N3CC[C@@H](Nc4ccc(C(F)(F)F)cn4)[C@@H](O)C3)cc2)c(C)[n+]([O-])c2[nH]ccc12 [Example 62, 5-(4-(((3S,4R)-3-hydroxy-4-((5-(trifluoromethyl)pyridin-2-yl)amino)piperidin-1-yl)sulfonyl)phenyl)-4,6-dimethyl-1H-pyrrolo[2,3-b]pyridine 7-oxide] | < 1 nM
Cc1nc2[nH]cc(C#N)c2c(C)c1-c1ccc(S(=O)(=O)N2CC[C@@H](Nc3ccc(C(F)(F)F)cn3)[C@@H](O)C2)cc1 [Example 63, 5-(4-(((3S,4R)-3-hydroxy-4-((5-(trifluoromethyl)pyridin-2-yl)amino)piperidin-1-yl)sulfonyl)phenyl)-4,6-dimethyl-1H-pyrrolo[2,3-b]pyridine-3-carbonitrile] | < 1 nM
